Laboratory results published in article PMC9138994 (Biomolecules, 2022).
pKi: −log10 of the molar value.

Experiments:
human 5-HT1A = target: T1, human 5-HT1A (Homo sapiens, UniProt P08908); assay: Radioligand displacement assay at 5-HT1A ([3H]-8-OH-DPAT, HEK293 cells); format: binding; conditions: HEK293 cells stably expressing h5-HT1A, read-out: Ki (n), 5-HT1A
T1 construct: expressed in transfected cells; host or cells: HEK293
T1 sequence (P08908 1-422): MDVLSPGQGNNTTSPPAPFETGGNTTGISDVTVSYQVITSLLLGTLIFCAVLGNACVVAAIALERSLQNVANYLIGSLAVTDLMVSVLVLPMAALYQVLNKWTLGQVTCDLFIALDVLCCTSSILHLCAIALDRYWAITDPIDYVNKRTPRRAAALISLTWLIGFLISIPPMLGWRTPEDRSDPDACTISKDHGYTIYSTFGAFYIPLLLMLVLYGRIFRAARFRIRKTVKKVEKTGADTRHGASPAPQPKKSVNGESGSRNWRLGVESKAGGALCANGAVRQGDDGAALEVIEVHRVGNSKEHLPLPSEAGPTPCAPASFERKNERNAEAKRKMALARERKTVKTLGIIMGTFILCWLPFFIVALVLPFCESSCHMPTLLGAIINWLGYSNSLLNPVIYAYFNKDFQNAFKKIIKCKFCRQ
Method: (§1) HEK293 cells with a stable expression of human 5-HT1A, 5-HT6, 5-HT7b, and D2L (prepared with the use of Lipofectamine 2000), or CHO-K1 cells with plasmids containing the sequence coding for the human serotonin 5-HT2A receptor (PerkinElmer), were maintained at 37 °C in a humidified atmosphere with 5% CO2 and grown in Dulbecco’s Modified Eagle Medium containing 10% dialyzed fetal bovine serum and 500 µg/mL G418 sulfate. For membrane preparation, cells were subcultured in 150 cm^2 flasks, grown to 90% confluence, washed twice with prewarmed to 37 °C phosphate buffered saline (PBS) and pelleted by centrifugation (200× g) in PBS containing 0.1 mM EDTA and 1 mM dithiothreitol. Prior to membrane preparation, the pellets were stored at −80 °C.
(§2) Cell pellets were thawed and homogenized in 10 volumes of assay buffer using an Ultra Turrax tissue homogenizer, and were then centrifuged twice at 35,000× g for 15 min at 4 °C, with incubations for 15 min at 37 °C in between. […] The process of equilibration was terminated by rapid filtration through Unifilter plates with a 96-well cell harvester and the radioactivity retained on the filters was quantified on a Microbeta plate reader (PerkinElmer, Waltham, MA, USA). […] The inhibition constants (Ki) were calculated from the Cheng-Prusoff equation [38]. Results are expressed as means of two separate experiments.

human 5-HT7b = target: T2, human 5-HT7b (Homo sapiens, UniProt P34969); assay: Radioligand displacement assay at 5-HT7 ([3H]-5-CT, HEK293 cells); format: binding; conditions: HEK293 cells stably expressing h5-HT7, read-out: Ki (n), 5-HT7
T2 construct: expressed in transfected cells; host or cells: HEK293
Method: as §1, §2

C57BL/6 mice = assay: Open field test (OFT); format: in vivo; conditions: for time spent in the center of the arena in OFT (anxiety level) / number of total line crossings in OFT (locomotor activity): i.p. pretreatment, 10 min test session; for time spent in the center of the arena in OFT (anxiety level): ST-2300 10 or 15 mg/kg, PIM 5–15 mg/kg, DZP 1 mg/kg, vs controls; for number of total line crossings in OFT (locomotor activity): ST-2300 or PIM 5–15 mg/kg, C57BL/6 mice
Method: Inbred adult male C57BL/6 mice (aged 10–12 weeks and weighing 20–25 g) were obtained from the animal facility in the College of Medicine and Health Sciences, United Arab Emirates University. The animals were maintained in a separate air-conditioned room with controlled temperature and humidity (24 ± 2 °C and 55 ± 15%, respectively), with a 12 h light/dark cycle, and ad libitum to food and water. All the experiments were performed between 9.00 am and 3.00 pm. The procedures were approved by the Institutional Animal Ethics Committee of College of Medicine and Health Sciences/United Arab Emirates University (Approval No. ERA-2019-6010). To reduce the suffering of the animals, a minimum number of animals were used in this study, whereas the objectives were not compromised.
These experiments provide the first behavioral assessment of the ST-2300 in anxiety-like and depression-like behaviors in mice. All doses are expressed in terms of the free base of all test compounds. The drugs used in the current study were dissolved in saline and injected i.p. at a volume of 1 mL/kg. All experimental procedures were conducted in a blinded fashion in which the experimenter was uninformed about the specific treatment groups to which an animal group belonged. Saline, ST-2300 (5, 10, and 15 mg/kg), PIM (5, 10, and 15 mg/kg), FLX (10 mg/kg), RAM (10 mg/kg), and DZP (1 mg/kg) were injected i.p. 30–45 min before the beginning of the behavioral experiments.
To analyze the effect of ST-2300 on locomotion and anxiety behaviors in animals, OFT was carried out. In addition to locomotor activity, the OFT is usually used to measure anxiety-like behaviors in experimental rodents. The test provides a unique opportunity to systematically assess novel environment exploration, general locomotor activity, and provide an initial screen for anxiety-related behavior in experimental rodents. The OF box consisted of a square box (45 × 45 × 30 cm). A 23 × 23 cm area in the center region was defined as the central arena, and the remaining area was defined as periphery area. The mice with a higher degree of anxiety prefer to stay closer to the walls of the box and spend less time in the center, whereas increased time spent in the central area indicates low anxiety level and high exploratory behaviors. The first 5 min of the experiment were considered as habituation, followed by 10 min test session. Total distance moved in the whole arena, time spent in the center, and in the periphery were recorded for 10 min using a charge-coupled, camera-assisted, motion-tracking apparatus and software (EthoVision 3.1, Noldus Information Technology, Wageningen, The Netherlands). After each mouse completed the test, the OF chamber was cleaned thoroughly with 70% (volume/volume; vol/vol) alcohol.

T2 sequence (P34969 1-432): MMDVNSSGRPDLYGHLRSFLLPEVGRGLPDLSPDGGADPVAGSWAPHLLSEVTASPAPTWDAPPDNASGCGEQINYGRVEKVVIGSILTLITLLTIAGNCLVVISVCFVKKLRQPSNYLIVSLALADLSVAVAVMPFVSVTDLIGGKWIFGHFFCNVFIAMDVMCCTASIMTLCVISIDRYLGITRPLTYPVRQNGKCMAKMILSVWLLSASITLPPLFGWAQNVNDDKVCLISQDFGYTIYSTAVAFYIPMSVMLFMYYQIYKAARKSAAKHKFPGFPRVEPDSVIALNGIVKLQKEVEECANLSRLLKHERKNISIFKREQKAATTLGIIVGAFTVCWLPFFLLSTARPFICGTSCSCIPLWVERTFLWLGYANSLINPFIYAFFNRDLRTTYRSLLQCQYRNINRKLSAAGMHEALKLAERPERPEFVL

| SMILES | pKi (human 5-HT1A) | pKi (human 5-HT7b) | time spent in the center of the arena in OFT (anxiety level) (C57BL/6 mice) | number of total line crossings in OFT (locomotor activity) (C57BL/6 mice) | time spent in the center in OFT, co-administration of RAM (C57BL/6 mice; ST-2300 10 mg/kg i.p. co-administered with RAM 10 mg/kg i.p.) |
| --- | --- | --- | --- | --- | --- |
| CC(C)COc1ccc(CNC(=O)N(Cc2ccc(F)cc2)C2CCN(C)CC2)cc1 [Pimavanserin, reference compound] | < 5.00 | < 5.00 | failed to provide any appreciable effects on the anxiety levels | did not alter the number of total line crossings |  |
| CN1CCC(N(Cc2ccc(F)cc2)C(=O)NCc2ccc(OCCCN3CCCCC3)cc2)CC1 [ST-2300, 1-(4-Fluorobenzyl)-1-(1-methylpiperidin-4-yl)-3-{4-[3-(piperidin-1-yl)propoxy]benzyl}urea] | < 5.00 | < 5.00 | dose-dependent increase of time spent in the center of the arena | did not alter the number of total line crossings | could not be reversed by co-administration with RAM |
